In patent EP0007205A1, “Optically active phenethanolamines, their formulations, use and preparation” (ELI LILLY AND COMPANY, priority 1978, dated 1980):
Like-named read-outs stand apart in the source and are kept apart here.

What was measured:
[1] = test system: dogs; assay: Inotropic potency in anesthetized dogs and conscious dogs with implanted cardiovascular transducers; type: in vivo; conditions: for ED50: read-out: Cardiac Contractile Potency mcg/kg ED50; for Blood Pressure Change mm/hg at ED50 / Heart rate Change beats/min. at ED50: at the contractile ED50
Experimental: The heart rate, arterial pressure, cardiac output, and the derivative of left ventricular pressure (which is the index of cardiac contractility), were measured.

[2] = test system: dogs; assay: Physical conditioning of dogs (treadmill exercise, chronic oral dosing); type: in vivo
Excerpt: In a typical experiment, a group of ten dogs were implanted with miniature pressure transducers in their left ventricle so that measurements of heart rate, systolic pressure and the derivative of left ventricular pressure (the index of cardiac contractility) could be made. The dogs were trained to walk on a treadmill. Five of the dogs were randomly selected to receive a compound of this invention, for instance R,R-N-[2-(4-hydroxyphenyl)-2-hydroxyethyl]-1-methyl-3-(4-hydroxyphenyl)propylaminium chloride. The test animals received saline filled capsules during the first week of the test. During the second and third weeks, the dogs received the test compound orally at a dose of 10 mcg./kg. twice each day. The dosage was increased to 40 mcg./kg. twice each day for the fourth week, and increased to 60 mcg./kg. twice each day through weeks five to eleven. The other five dogs received saline filled capsules throughout the study. Once each week, the animals' response to exercise on . the treadmill was evaluated. Resting data were obtained by permitting the dogs to lie on the treadmill before turning it on. The treadmill then was run at a speed of 3.5 kilometers/hr., with the dogs walking at this speed with no elevation for 5 min., and then for 5 min. at a 20% incline. During the eleventh week of such test, the dogs were made to walk on a 40% incline, thus providing sufficient stress to increase plasma lactic acid and catecholamines. Blood samples prior to each exercise and within two minutes of completing the exercise were taken from the jugular vein.
After several weeks, the dogs were anesthetized and measurements of ventricular function and skeletal muscle blood flow and enzymes were made.

[3] = Canis lupus familiaris, dogs, dose giving a 50% increase in contractile force (derivative of left ventricular pressure)

Row | Compound | ED50 [1, 3] | Blood Pressure Change mm/hg at ED50 ([1]; dogs) | Heart rate Change beats/min. at ED50 ([1]; dogs) | further results
1 | C[C@H](CCc1ccc(C(N)=O)cc1)NC[C@H](O)c1ccccc1 [R,R-N-(2-Phenyl-2-hydroxyethyl)-l-methyl-3-(4-aminocarbonylphenyl)propylamine] | 7 µg/kg | +3 mm/hg | 15 beats/min. | 
2 | C[C@H](CCc1ccc(O)cc1)NC[C@H](O)c1ccccc1 [R,R-N-(2-phenyl-2-hydroxyethyl)-1-methyl-3-(4-hydroxyphenyl)propylamine] | 6 µg/kg | -13 mm/hg | 15 beats/min. | 
3 | C[C@H](CCc1ccc(O)cc1)NC[C@H](O)c1ccc(O)cc1.Cl [R,R-N-[2-(4-Hydroxyphenyl)-2-hydroxyethyl]-1-methyl-3-(4-hydroxyphenyl)propylaminium chloride] |  |  |  | Skeletal Muscle Blood Flow (ml./min./100 g.) ([2]; conditioned dogs, anesthetized after several weeks, p<0.01): 2.5 ml./min./100 g.; Heart Rate (beats/min.) at rest ([2]; conditioned dogs, at rest, p<0.01): 55 beats/min.; Heart Rate (beats/min.) at 20° walk ([2]; conditioned dogs, treadmill walk at 20°, p<0.01): 150 beats/min.; Blood Lactic Acid (mg.%) at rest ([2]; dogs, oral 10 then 40 then 60 mcg./kg. twice each day over eleven weeks, at rest, p<0.01 printed for lactic acid): 5.2 mg.%; Plasma Norepinephrine (picograms/ml.) at rest ([2]; dogs, oral 10 then 40 then 60 mcg./kg. twice each day over eleven weeks, at rest, p<0.05 printed for norepinephrine): 235 picograms/ml.; Blood Lactic Acid (mg.%) during exercise ([2]; dogs, oral 10 then 40 then 60 mcg./kg. twice each day over eleven weeks, during treadmill exercise, p<0.01 printed for lactic acid): 6.3 mg.%; Plasma Norepinephrine (picograms/ml.) during exercise ([2]; dogs, oral 10 then 40 then 60 mcg./kg. twice each day over eleven weeks, during treadmill exercise, p<0.05 printed for norepinephrine): 200 picograms/ml.; Succinic Dehydrogenase Activity (µM/mgP/min.) ([2]; skeletal muscle of conditioned dogs, p<0.01): 3.3 µM/mgP/min.
4 | C[C@H](CCc1ccc(O)cc1)NC[C@H](O)c1ccc(O)cc1 [R,R-N-[2-(4-hydroxyphenyl)-2-hydroxyethyl]-1-methyl-3-(4-hydroxyphenyl)propylamine] |  | -5 mm/hg | 15 beats/min. | ED50 ([1]; Canis lupus familiaris): 0.32 µg/kg
5 | C[C@@H](CCc1ccc(C(N)=O)cc1)NC[C@H](O)c1ccccc1 [R,S-N-(2-phenyl-2-hydroxyethyl)-1-methyl-3-(4-aminocarbonylphenyl)propylamine, reference compound] |  |  |  | ED (max) ([1]; Canis lupus familiaris, dogs, EDmax: a 50% increase in contractile force could not be achieved, dose giving the maximal increase, read-out: Cardiac Contractile Potency mcg/kg (EDmax)): 1980 µg/kg; Blood Pressure Change mm/hg (EDmax) ([1]; dogs, at EDmax dose): -30 (EDmax) mm/hg; Heart rate Change beats/min. (EDmax) ([1]; dogs, at EDmax dose): 24 (EDmax) beats/min.
6 | C[C@@H](CCc1ccc(O)cc1)NC[C@H](O)c1ccc(O)cc1 [R,S-N-[2-(4-hydroxyphenyl)-2-hydroxyethyl]-1-methyl-3-(4-hydroxyphenyl)propylamine, reference compound] |  | -2 mm/hg | 15 beats/min. | ED50 ([1]; Canis lupus familiaris): 11 µg/kg
7 | C[C@@H](CCc1ccc(O)cc1)NC[C@H](O)c1ccccc1 [R,S-N-[2-phenyl-2-hydroxyethyl)-1-methyl-3-(4-hydroxyphenyl)propylamine, reference compound] | 350 µg/kg | -20 mm/hg | 18 beats/min. | 
